# Source: ChEMBL document CHEMBL1629674, “Surveillance of carbapenem-resistant Pseudomonas aeruginosa isolates from Puerto Rican Medical Center Hospitals: dissemination of KPC and IMP-18 beta-lactamases” (2009)
# Columns and labels:
# Pseudomonas aeruginosa [1] = test: Antimicrobial activity against Pseudomonas aeruginosa PS37 with PFGE phasotype 11D obtained from sputum of patient by agar dilution method in presence of beta-lactamase inhibitor Tazobactam; type: functional
# Pseudomonas aeruginosa [2] = test: Antimicrobial activity against Pseudomonas aeruginosa PS25 with PFGE phenotype 1A obtained from sputum of patient by agar dilution method in presence of beta-lactamase inhibitor tazobactam; type: functional
# Pseudomonas aeruginosa [3] = test: Antimicrobial activity against OprD overproducing Pseudomonas aeruginosa PAO1 expressing mexA and oprD by agar dilution method in presence of beta-lactamase inhibitor Tazobactam; type: functional
# Pseudomonas aeruginosa [4] = test: Antimicrobial activity against Pseudomonas aeruginosa PS20A with PFGE phenotype 11D obtained from skin of patient by agar dilution method in presence of beta-lactamase inhibitor tazobactam; type: functional
# Pseudomonas aeruginosa [5] = test: Antimicrobial activity against Pseudomonas aeruginosa PS30 with PFGE phenotype 11D obtained from sputum of patient by agar dilution method in presence of beta-lactamase inhibitor tazobactam; type: functional
# Pseudomonas aeruginosa [6] = test: Antimicrobial activity against Pseudomonas aeruginosa PS15A with PFGE phasotype 10A obtained from blood of patient by agar dilution method in presence of beta-lactamase inhibitor Tazobactam; type: functional
# Pseudomonas aeruginosa [7] = test: Antimicrobial activity against Pseudomonas aeruginosa PS6A with PFGE phenotype 11A obtained from sputum of ICU patient by agar dilution method in presence of beta-lactamase inhibitor tazobactam; type: functional
# Pseudomonas aeruginosa [8] = test: Antimicrobial activity against Pseudomonas aeruginosa PS44 with PFGE phenotype 13 expressing beta-lactamase IMP-18 obtained from blood of patient by agar dilution method in presence of beta-lactamase inhibitor tazobactam; type: functional
# Pseudomonas aeruginosa [9] = test: Antimicrobial activity against Pseudomonas aeruginosa PS34 with PFGE phenotype 4A obtained from blood of ICU patient by agar dilution method in presence of beta-lactamase inhibitor tazobactam; type: functional
# Pseudomonas aeruginosa [10] = test: Antimicrobial activity against Pseudomonas aeruginosa PS35 with PFGE phenotype 11A obtained from urine of patient by agar dilution method in presence of beta-lactamase inhibitor tazobactam; type: functional
# Pseudomonas aeruginosa [11] = test: Antimicrobial activity against Pseudomonas aeruginosa PS9 with PFGE phenotype 3B obtained from sputum of patient by agar dilution method in presence of beta-lactamase inhibitor tazobactam; type: functional
# Pseudomonas aeruginosa [12] = test: Antimicrobial activity against Pseudomonas aeruginosa PS29 with PFGE phenotype 11D obtained from sputum of patient by agar dilution method in presence of beta-lactamase inhibitor tazobactam; type: functional
# Pseudomonas aeruginosa [13] = test: Antimicrobial activity against Pseudomonas aeruginosa PS21 with PFGE phenotype 11F obtained from skin of patient by agar dilution method in presence of beta-lactamase inhibitor tazobactam; type: functional
# Pseudomonas aeruginosa [14] = test: Antimicrobial activity against Pseudomonas aeruginosa PS4 with PFGE phasotype 9B expressing beta-lactamase IMP-18 obtained from sputum of patient by agar dilution method in presence of beta-lactamase inhibitor Tazobactam; type: functional
# Pseudomonas aeruginosa [15] = test: Antimicrobial activity against Pseudomonas aeruginosa PS5 with PFGE phenotype 7A expressing beta-lactamase KPC-2 obtained from sputum of ICU patient by agar dilution method in presence of beta-lactamase inhibitor tazobactam; type: functional
# Pseudomonas aeruginosa [16] = test: Antimicrobial activity against Pseudomonas aeruginosa PS12 with PFGE phasotype 7B obtained from sputum of patient by agar dilution method in presence of beta-lactamase inhibitor Tazobactam; type: functional
# Pseudomonas aeruginosa [17] = test: Antimicrobial activity against Pseudomonas aeruginosa PS3 with PFGE phenotype 12 obtained from sputum of ICU patient by agar dilution method in presence of beta-lactamase inhibitor tazobactam; type: functional
# Pseudomonas aeruginosa [18] = test: Antimicrobial activity against Pseudomonas aeruginosa PS28 with PFGE phenotype 6 expressing beta-lactamase KPC-5 obtained from skin of patient by agar dilution method in presence of beta-lactamase inhibitor tazobactam; type: functional
# Pseudomonas aeruginosa [19] = test: Antimicrobial activity against Pseudomonas aeruginosa PS2 with PFGE phenotype 10B obtained from urine of ICU patient by agar dilution method in presence of beta-lactamase inhibitor tazobactam; type: functional
# Pseudomonas aeruginosa [20] = test: Antimicrobial activity against Pseudomonas aeruginosa PS40 with PFGE phenotype 5 expressing beta-lactamase KPC-2, OXA-2 obtained from urine of patient by agar dilution method in presence of beta-lactamase inhibitor tazobactam; type: functional
# Pseudomonas aeruginosa [21] = test: Antimicrobial activity against Pseudomonas aeruginosa PS17B with PFGE phenotype 11D expressing beta-lactamase KPC-2 obtained from blood of ICU patient by agar dilution method in presence of beta-lactamase inhibitor tazobactam; type: functional
# Pseudomonas aeruginosa [22] = test: Antimicrobial activity against Pseudomonas aeruginosa PS13 with PFGE phenotype 11E obtained from sputum of ICU patient by agar dilution method in presence of beta-lactamase inhibitor tazobactam; type: functional
# Pseudomonas aeruginosa [23] = test: Antimicrobial activity against Pseudomonas aeruginosa PS36 with PFGE phenotype 11B obtained from urine of patient by agar dilution method in presence of beta-lactamase inhibitor tazobactam; type: functional
# Pseudomonas aeruginosa [24] = test: Antimicrobial activity against Pseudomonas aeruginosa PS31 with PFGE phenotype 11B obtained from skin of patient by agar dilution method in presence of beta-lactamase inhibitor tazobactam; type: functional
# Pseudomonas aeruginosa [25] = test: Antimicrobial activity against Pseudomonas aeruginosa PS10 with PFGE phenotype 1A expressing beta-lactamase KPC-2 obtained from blood of patient by agar dilution method in presence of beta-lactamase inhibitor tazobactam; type: functional
# Pseudomonas aeruginosa [26] = test: Antimicrobial activity against Pseudomonas aeruginosa PS22 with PFGE phenotype 3A obtained from urine of patient by agar dilution method in presence of beta-lactamase inhibitor tazobactam; type: functional
# Pseudomonas aeruginosa [27] = test: Antimicrobial activity against Pseudomonas aeruginosa PS33 with PFGE phasotype 9A obtained from blood of patient by agar dilution method in presence of beta-lactamase inhibitor Tazobactam; type: functional
# Pseudomonas aeruginosa [28] = test: Antimicrobial activity against Pseudomonas aeruginosa PS14 with PFGE phenotype 10C obtained from sputum of ICU patient by agar dilution method in presence of beta-lactamase inhibitor tazobactam; type: functional
# Pseudomonas aeruginosa [29] = test: Antimicrobial activity against Pseudomonas aeruginosa PS23 with PFGE phasotype 4A expressing beta-lactamase KPC-2 obtained from blood of patient by agar dilution method in presence of beta-lactamase inhibitor Tazobactam; type: functional
# Pseudomonas aeruginosa [30] = test: Antimicrobial activity against Pseudomonas aeruginosa PS7A with PFGE phenotype 11D obtained from urine of ICU patient by agar dilution method in presence of beta-lactamase inhibitor tazobactam; type: functional
# Pseudomonas aeruginosa [31] = test: Antimicrobial activity against Pseudomonas aeruginosa PS1 with PFGE phenotype 9C negative for blaIMP, blaVIM and blaKPC obtained from sputum of patient by agar dilution method in presence of beta-lactamase inhibitor tazobactam
# Pseudomonas aeruginosa [32] = test: Antimicrobial activity against Pseudomonas aeruginosa PS26 with PFGE phenotype 3A expressing beta-lactamase OXA-2 obtained from sputum of ICU patient by agar dilution method in presence of beta-lactamase inhibitor tazobactam; type: functional
# Pseudomonas aeruginosa [33] = test: Antimicrobial activity against Pseudomonas aeruginosa PS41 with PFGE phenotype 11D obtained from urine of patient by agar dilution method in presence of beta-lactamase inhibitor tazobactam; type: functional
# Pseudomonas aeruginosa [34] = test: Antimicrobial activity against Pseudomonas aeruginosa PS39 with PFGE phenotype 8 expressing beta-lactamase IMP-18 obtained from urine of patient by agar dilution method in presence of beta-lactamase inhibitor tazobactam; type: functional
# Pseudomonas aeruginosa [35] = test: Antimicrobial activity against Pseudomonas aeruginosa PS11A with PFGE phasotype 7A obtained from sputum of ICU patient by agar dilution method in presence of beta-lactamase inhibitor Tazobactam; type: functional
# Pseudomonas aeruginosa [36] = test: Antimicrobial activity against Pseudomonas aeruginosa PS19A with PFGE phenotype 11C obtained from urine of patient by agar dilution method in presence of beta-lactamase inhibitor tazobactam; type: functional
# Pseudomonas aeruginosa [37] = test: Antimicrobial activity against Pseudomonas aeruginosa PS18A with PFGE phenotype 11D obtained from CSF of ICU patient by agar dilution method in presence of beta-lactamase inhibitor tazobactam; type: functional
# Pseudomonas aeruginosa [38] = test: Antimicrobial activity against Pseudomonas aeruginosa PS43 with PFGE phasotype 2 expressing beta-lactamase KPC-2, OXA-2 obtained from skin of ICU patient by agar dilution method in presence of beta-lactamase inhibitor Tazobactam; type: functional
smiles,measurement,setting,value
CCN1CCN(C(=O)N[C@@H](C(=O)N[C@@H]2C(=O)N3[C@@H]2SC(C)(C)[C@@H]3C(=O)O)c2ccccc2)C(=O)C1=O [PIPERACILLIN],MIC,Pseudomonas aeruginosa [1],> 256 µg/mL
same,MIC,Pseudomonas aeruginosa [2],> 256 µg/mL
same,MIC,Pseudomonas aeruginosa [3],4 µg/mL
same,MIC,Pseudomonas aeruginosa [4],> 256 µg/mL
same,MIC,Pseudomonas aeruginosa [5],> 256 µg/mL
same,MIC,Pseudomonas aeruginosa [6],8 µg/mL
same,MIC,Pseudomonas aeruginosa [7],> 256 µg/mL
same,MIC,Pseudomonas aeruginosa [8],32 µg/mL
same,MIC,Pseudomonas aeruginosa [9],> 256 µg/mL
same,MIC,Pseudomonas aeruginosa [10],> 256 µg/mL
same,MIC,Pseudomonas aeruginosa [11],64 µg/mL
same,MIC,Pseudomonas aeruginosa [12],> 256 µg/mL
same,MIC,Pseudomonas aeruginosa [13],> 256 µg/mL
same,MIC,Pseudomonas aeruginosa [14],64 µg/mL
same,MIC,Pseudomonas aeruginosa [15],> 256 µg/mL
same,MIC,Pseudomonas aeruginosa [16],> 256 µg/mL
same,MIC,Pseudomonas aeruginosa [17],8 µg/mL
same,MIC,Pseudomonas aeruginosa [18],128 µg/mL
same,MIC,Pseudomonas aeruginosa [19],4 µg/mL
same,MIC,Pseudomonas aeruginosa [20],128 µg/mL
same,MIC,Pseudomonas aeruginosa [21],> 256 µg/mL
same,MIC,Pseudomonas aeruginosa [22],> 256 µg/mL
same,MIC,Pseudomonas aeruginosa [23],> 256 µg/mL
same,MIC,Pseudomonas aeruginosa [24],> 256 µg/mL
same,MIC,Pseudomonas aeruginosa [25],> 256 µg/mL
same,MIC,Pseudomonas aeruginosa [26],256 µg/mL
same,MIC,Pseudomonas aeruginosa [27],32 µg/mL
same,MIC,Pseudomonas aeruginosa [28],4 µg/mL
same,MIC,Pseudomonas aeruginosa [29],> 256 µg/mL
same,MIC,Pseudomonas aeruginosa [30],> 256 µg/mL
same,MIC,Pseudomonas aeruginosa [31],8 µg/mL
same,MIC,Pseudomonas aeruginosa [32],128 µg/mL
same,MIC,Pseudomonas aeruginosa [33],> 256 µg/mL
same,MIC,Pseudomonas aeruginosa [34],128 µg/mL
same,MIC,Pseudomonas aeruginosa [35],> 256 µg/mL
same,MIC,Pseudomonas aeruginosa [36],> 256 µg/mL
same,MIC,Pseudomonas aeruginosa [37],> 256 µg/mL
same,MIC,Pseudomonas aeruginosa [38],256 µg/mL
